Reference: PubChem BioAssay AID248 (DTP/NCI, 2004)
Where “and” joins values, the source holds several entries; their conditions need not be identical. Equal values may be shown once. Inconclusive results and toxic doses are left out. No stated cut-off is given here; in the data, active means T/C of 150% or more; inactive means T/C below 125%.

System: L1210 leukemia ip in BDF1 mice, survival T/C
Assay: NCI In Vivo Anticancer Drug Screen. Data for tumor model L1210 Leukemia (intraperitoneal) in B6D2F1 (BDF1) mice
Settings: higher = longer survival
Summary of the method: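 Mice bearing the transplanted tumor received compound or vehicle. Survival of the treated group was divided by that of the vehicle-treated control group to give the ratio.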

[1] = endpoint: mean survival time, dose: 100.0 mg/kg/injection, schedule: Q04DX003 (ip), vehicle: saline
[2] = endpoint: mean survival time, dose: 200.0 mg/kg/injection, schedule: Q04DX003 (ip), vehicle: saline
[3] = endpoint: mean survival time, dose: 400.0 mg/kg/injection, schedule: Q04DX003 (ip), vehicle: saline
[4] = endpoint: mean survival time, dose: 100.0 mg/kg/injection, schedule: Q01DX009 (ip), vehicle: Klucel (hydroxypropylcellulose) (HPC)
[5] = endpoint: mean survival time, dose: 200.0 mg/kg/injection, schedule: Q01DX009 (ip), vehicle: Klucel (hydroxypropylcellulose) (HPC)
[6] = endpoint: mean survival time, dose: 50.0 mg/kg/injection, schedule: Q01DX009 (ip), vehicle: Klucel (hydroxypropylcellulose) (HPC)
[7] = endpoint: mean survival time, dose: 100.0 mg/kg/injection, schedule: Q04DX003 (ip), vehicle: Klucel (hydroxypropylcellulose) (HPC)
[8] = endpoint: mean survival time, dose: 200.0 mg/kg/injection, schedule: Q04DX003 (ip), vehicle: Klucel (hydroxypropylcellulose) (HPC)
[9] = endpoint: mean survival time, dose: 400.0 mg/kg/injection, schedule: Q01DX009 (ip), vehicle: Klucel (hydroxypropylcellulose) (HPC)
[10] = endpoint: mean survival time, dose: 400.0 mg/kg/injection, schedule: Q04DX003 (ip), vehicle: Klucel (hydroxypropylcellulose) (HPC)
[11] = endpoint: mean survival time, dose: 100.0 mg/kg/injection, schedule: Q04DX002 (ip), vehicle: Klucel (hydroxypropylcellulose) (HPC)
[12] = endpoint: mean survival time, dose: 200.0 mg/kg/injection, schedule: Q04DX002 (ip), vehicle: Klucel (hydroxypropylcellulose) (HPC)
[13] = endpoint: mean survival time, dose: 400.0 mg/kg/injection, schedule: Q04DX002 (ip), vehicle: Klucel (hydroxypropylcellulose) (HPC)
[14] = endpoint: mean survival time, dose: 100.0 mg/kg/injection, schedule: Q01DX001 (ip), vehicle: carboxymethylcellulose (CMC)
[15] = endpoint: mean survival time, dose: 200.0 mg/kg/injection, schedule: Q01DX001 (ip), vehicle: carboxymethylcellulose (CMC)
[16] = endpoint: mean survival time, dose: 400.0 mg/kg/injection, schedule: Q01DX001 (ip), vehicle: carboxymethylcellulose (CMC)

Measured: T/C

Cc1cc[n+](C2CC(C)(C)c3ccccc3C2=O)cc1 (stereo unspecified)
inactive: endpoint: mean survival time, dose: 12.5 mg/kg/injection, schedule: Q01DX001 (ip), vehicle: Klucel (hydroxypropylcellulose) (HPC) 100 % of control | endpoint: mean survival time, dose: 25.0 mg/kg/injection, schedule: Q01DX001 (ip), vehicle: Klucel (hydroxypropylcellulose) (HPC) 113 % of control | endpoint: mean survival time, dose: 50.0 mg/kg/injection, schedule: Q01DX001 (ip), vehicle: Klucel (hydroxypropylcellulose) (HPC) 98 % of control

c1cc(C2OCCO2)ccn1
inactive: endpoint: mean survival time, dose: 100.0 mg/kg/injection, schedule: Q01DX001 (ip), vehicle: saline 101 % of control | [1] 107 % of control | endpoint: mean survival time, dose: 200.0 mg/kg/injection, schedule: Q01DX001 (ip), vehicle: saline 100 % of control | [2] 100 % of control | endpoint: mean survival time, dose: 400.0 mg/kg/injection, schedule: Q01DX001 (ip), vehicle: saline 100 % of control | [3] 97 % of control

CCCOCCOCCOC(C)Oc1ccc(C(=O)OC)cc1 (stereo unspecified)
inactive: endpoint: mean survival time, dose: 100.0 mg/kg/injection, schedule: Q04DX002 (ip), vehicle: saline 101 % of control | endpoint: mean survival time, dose: 200.0 mg/kg/injection, schedule: Q04DX002 (ip), vehicle: saline 101 % of control | endpoint: mean survival time, dose: 400.0 mg/kg/injection, schedule: Q04DX002 (ip), vehicle: saline 99 % of control

CCOc1ccc(/C=C2\C=Nc3ccccc32)cc1
inactive: [4] 91 % of control | [5] 99 % of control

O=C1c2c(Cl)cccc2Cc2cccc(Cl)c21
inactive: endpoint: mean survival time, dose: 37.5 mg/kg/injection, schedule: Q01DX001 (ip), vehicle: Klucel (hydroxypropylcellulose) (HPC) 107 % of control | endpoint: mean survival time, dose: 75.0 mg/kg/injection, schedule: Q01DX001 (ip), vehicle: Klucel (hydroxypropylcellulose) (HPC) 102 % of control | endpoint: mean survival time, dose: 150.0 mg/kg/injection, schedule: Q01DX001 (ip), vehicle: Klucel (hydroxypropylcellulose) (HPC) 100 % of control

O=C1c2ccccc2C(=O)N1SN1C(=O)c2ccccc2C1=O
inactive: endpoint: mean survival time, dose: 25.0 mg/kg/injection, schedule: Q01DX009 (ip), vehicle: Klucel (hydroxypropylcellulose) (HPC) 92 % of control | [6] 93 % of control | [4] 97 % of control

CN1C(=O)CCN(CCCN2CCC(=O)N(C)C2=S)C1=S
inactive: endpoint: mean survival time, dose: 100.0 mg/kg/injection, schedule: Q04DX002 (ip), vehicle: saline with Tween-80 95 % of control | endpoint: mean survival time, dose: 200.0 mg/kg/injection, schedule: Q04DX002 (ip), vehicle: saline with Tween-80 95 % of control | endpoint: mean survival time, dose: 400.0 mg/kg/injection, schedule: Q04DX002 (ip), vehicle: saline with Tween-80 88 % of control

COc1ccc(C2CCCCCC2OC(=O)c2ccc([N+](=O)[O-])cc2)c(OC)c1OC (stereo unspecified)
inactive: endpoint: mean survival time, dose: 100.0 mg/kg/injection, schedule: Q01DX001 (ip), vehicle: other 96 % of control | endpoint: mean survival time, dose: 200.0 mg/kg/injection, schedule: Q01DX001 (ip), vehicle: other 106 % of control | endpoint: mean survival time, dose: 400.0 mg/kg/injection, schedule: Q01DX001 (ip), vehicle: other 96 % of control

O=C1CCCC/C1=C/c1ccccc1Cl
inactive: [4] 97 % of control | [7] 104 % of control | [5] 105 % of control | [8] 104 % of control | [9] 100 % of control | [10] 97 % of control

CCc1ccccc1NC(=O)Nc1ccc(Cl)c(Cl)c1
inactive: [4] 88 % of control | [7] 98 % of control | [5] 96 % of control | [8] 93 % of control | [9] 88 % of control | [10] 104 % of control

Cc1cccc(NC(=O)C2CCCCC2C(=O)O)c1C (stereo unspecified)
inactive: [11] 100 % of control | [12] 107 % of control | [13] 92 % of control

O=C(Nc1ccc(Cl)cc1)Oc1ccc(Nc2ccccc2)cc1
inactive: [11] 114 % of control | [12] 111 % of control | [13] 111 % of control

c1ccc2c(c1)ccc1ccc[s+]c12
inactive: [6] 95 % of control | endpoint: mean survival time, dose: 50.0 mg/kg/injection, schedule: Q04DX003 (ip), vehicle: Klucel (hydroxypropylcellulose) (HPC) 108 % of control | endpoint: mean survival time, dose: 100.0 mg/kg/injection, schedule: Q01DX001 (ip), vehicle: acetone 103 % of control | [4] 94 % of control | [7] 104 % of control | endpoint: mean survival time, dose: 200.0 mg/kg/injection, schedule: Q01DX001 (ip), vehicle: acetone 103 % of control | [5] 97 % of control | [8] 104 % of control | endpoint: mean survival time, dose: 400.0 mg/kg/injection, schedule: Q01DX001 (ip), vehicle: acetone 106 % of control

CCCCCCCCCCCCCC(=O)[O][Hg][c]1ccccc1
inactive: endpoint: mean survival time, dose: 75.0 mg/kg/injection, schedule: Q01DX001 (ip), vehicle: steriod suspending solution 96 % of control

O=C1NC(=O)C2(CCc3ccc(N(CCCl)CCCl)cc32)N1 (stereo unspecified)
inactive: endpoint: median survival time, dose: 100.0 mg/kg/injection, schedule: Q01DX009 (ip), vehicle: Klucel (hydroxypropylcellulose) (HPC) 105 % of control

COc1ccc(Cl)cc1NC(=O)Nc1cccc2c(O)cccc12
inactive: endpoint: mean survival time, dose: 100.0 mg/kg/injection, schedule: Q01DX009 (ip), vehicle: saline 96 % of control | [1] 107 % of control | endpoint: mean survival time, dose: 200.0 mg/kg/injection, schedule: Q01DX009 (ip), vehicle: saline 100 % of control | [2] 107 % of control | endpoint: mean survival time, dose: 400.0 mg/kg/injection, schedule: Q01DX009 (ip), vehicle: saline 96 % of control | [3] 103 % of control

CCOC(=O)COc1c(C(C)CC)cc([N+](=O)[O-])cc1[N+](=O)[O-] (stereo unspecified)
inactive: endpoint: mean survival time, dose: 25.0 mg/kg/injection, schedule: Q01DX009 (ip), vehicle: gum acacia 93 % of control | endpoint: mean survival time, dose: 25.0 mg/kg/injection, schedule: Q04DX002 (ip), vehicle: gum acacia 104 % of control | endpoint: mean survival time, dose: 50.0 mg/kg/injection, schedule: Q01DX009 (ip), vehicle: gum acacia 93 % of control | endpoint: mean survival time, dose: 50.0 mg/kg/injection, schedule: Q04DX002 (ip), vehicle: gum acacia 100 % of control | endpoint: mean survival time, dose: 100.0 mg/kg/injection, schedule: Q01DX009 (ip), vehicle: gum acacia 90 % of control | endpoint: mean survival time, dose: 100.0 mg/kg/injection, schedule: Q04DX002 (ip), vehicle: gum acacia 100 % of control and 92 % of control

C=C(Cl)CNC(=O)c1ccc([N+](=O)[O-])cc1
inactive: [7] 98 % of control | [8] 104 % of control

COc1ccc(Cl)cc1NC(=O)c1ccco1
inactive: [4] 89 % of control | [5] 87 % of control | [9] 97 % of control

CC(=O)N/N=C/c1ccc(N(C)C)cc1
inactive: [14] 94 % of control | [15] 94 % of control

CC(=O)OC1CCC2C3CCC4=C(Cl)C(=O)CCC4C3CCC12C (stereo unspecified)
inactive: endpoint: mean survival time, dose: 100.0 mg/kg/injection, schedule: Q01DX009 (sc), vehicle: steriod suspending solution 103 % of control | endpoint: mean survival time, dose: 200.0 mg/kg/injection, schedule: Q01DX009 (sc), vehicle: steriod suspending solution 102 % of control | endpoint: mean survival time, dose: 400.0 mg/kg/injection, schedule: Q01DX009 (sc), vehicle: steriod suspending solution 100 % of control

CC(CO)(CO)NC(=O)c1ccc([N+](=O)[O-])cc1
inactive: [14] 94 % of control | [15] 100 % of control | [16] 94 % of control

CCOC(=O)C(C)(C)CCl
inactive: [4] 100 % of control | [5] 94 % of control | [9] 103 % of control

OCc1cc2ccccc2cc1F
inactive: endpoint: mean survival time, dose: 50.0 mg/kg/injection, schedule: Q01DX009 (ip), vehicle: saline with Tween-80 105 % of control | endpoint: mean survival time, dose: 100.0 mg/kg/injection, schedule: Q01DX009 (ip), vehicle: saline with Tween-80 92 % of control | endpoint: mean survival time, dose: 100.0 mg/kg/injection, schedule: Q04DX003 (ip), vehicle: acetone 100 % of control | endpoint: mean survival time, dose: 200.0 mg/kg/injection, schedule: Q01DX009 (ip), vehicle: saline with Tween-80 103 % of control | endpoint: mean survival time, dose: 200.0 mg/kg/injection, schedule: Q04DX003 (ip), vehicle: acetone 87 % of control

CN(C(=O)c1ccc(C(=N)N)cc1)c1ccccc1
inactive: endpoint: mean survival time, dose: 100.0 mg/kg/injection, schedule: Q01DX001 (ip), vehicle: saline with Tween-80 100 % of control | endpoint: mean survival time, dose: 200.0 mg/kg/injection, schedule: Q01DX001 (ip), vehicle: saline with Tween-80 100 % of control

CC(=O)c1ccc(CC(C)C)cc1
inactive: endpoint: mean survival time, dose: 150.0 mg/kg/injection, schedule: Q01DX009 (ip), vehicle: Klucel (hydroxypropylcellulose) (HPC) 90 % of control | endpoint: mean survival time, dose: 300.0 mg/kg/injection, schedule: Q01DX009 (ip), vehicle: Klucel (hydroxypropylcellulose) (HPC) 94 % of control

O=C=Nc1cccc(S(=O)(=O)F)c1
inactive: endpoint: mean survival time, dose: 50.0 mg/kg/injection, schedule: Q01DX001 (ip), vehicle: carboxymethylcellulose (CMC) 105 % of control | [14] 103 % of control | [15] 105 % of control | [16] 97 % of control
